Laboratory results published in patent US8604218B2, “Cytoskeletal active rho kinase inhibitor compounds, composition and use” (Inspire Pharmaceuticals, Inc., priority 2006, dated 2013).

These compounds were tested against ROCK2 (Homo sapiens (Human), UniProt O75116) (assay: Rho Kinase Inhibition Assay (IMAP fluorescence polarization)). Conditions: isolated enzyme, 10 μM ATP, 60 minutes at room temperature.
Assay type: biochemical
Protocol: Following the preincubation, 10 μM ATP was added to initiate the reaction. After 60 minutes at room temperature, Molecular Devices IMAP™ binding solution was added to bind phosphorylated substrate. After 30 minutes of incubation in the presence of the IMAP™ beads the fluorescence polarization was read and the ratio was reported as mP. IC50 results were calculated using the Prism software from Graphpad.
See Tian et al., Arch. Ophthalmol. […] Ophthalmol. Vis. […] Ophthalmol. […] Cytoskel. […] Ophthalmol. Vis. […] Ophthalmol. Vis.

Sequence of ROCK2 (O75116 11-552): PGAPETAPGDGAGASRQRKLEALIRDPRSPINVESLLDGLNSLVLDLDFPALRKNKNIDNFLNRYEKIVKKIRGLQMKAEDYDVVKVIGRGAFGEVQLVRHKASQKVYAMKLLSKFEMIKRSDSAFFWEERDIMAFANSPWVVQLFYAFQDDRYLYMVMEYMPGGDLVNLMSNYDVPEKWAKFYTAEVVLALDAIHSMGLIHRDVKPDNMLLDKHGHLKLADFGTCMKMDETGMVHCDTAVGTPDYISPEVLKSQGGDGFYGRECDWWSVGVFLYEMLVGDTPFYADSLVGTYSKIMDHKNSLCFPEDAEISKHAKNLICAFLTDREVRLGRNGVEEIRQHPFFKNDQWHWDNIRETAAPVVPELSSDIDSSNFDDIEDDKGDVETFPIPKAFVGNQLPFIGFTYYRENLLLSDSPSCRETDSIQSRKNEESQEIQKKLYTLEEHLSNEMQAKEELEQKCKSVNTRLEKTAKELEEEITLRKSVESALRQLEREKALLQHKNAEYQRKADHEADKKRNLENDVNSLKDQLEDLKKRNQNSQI

SMILES	IC50
c1cc2c(cc1CN1CCCC(Nc3ccc4[nH]ncc4c3)C1)OCCO2 (centres unmarked) [Compound 1.053, N-(1-((2,3-dihydrobenzo[b][1,4]dioxin-6-yl)methyl)piperidin-3-yl)-1H-indazol-5-amine]	189 nM
CC(C)(C)OC(=O)NCc1cccc(CN2CCCC(Nc3ccc4[nH]ncc4c3)C2)c1 (centres unmarked) [Compound 1.057, tert-butyl 3-((3-(1H-indazol-5-ylamino)piperidin-1-yl)methyl)benzylcarbamate]	194 nM
CCOC(=O)COc1cccc(CN2CCCC(Nc3ccc4[nH]ncc4c3)C2)c1 (centres unmarked) [Compound 1.060, ethyl 2-(3-((3-(1H-indazol-5-ylamino)piperidin-1-yl)methyl)phenoxy)acetate]	87.2 nM
Clc1ccc(CN2CCC(Nc3ccc4[nH]ncc4c3)C2)cc1Cl (centres unmarked) [Compound 1.062, N-(1-(3,4-dichlorobenzyl)pyrrolidin-3-yl)-1H-indazol-5-amine]	155 nM
FC(F)(F)c1cccc(CN2CCCC(Nc3ccc4[nH]ncc4c3)C2)c1 (centres unmarked) [Compound 1.063, N-(1-(3-(trifluoromethyl)benzyl)piperidin-3-yl)-1H-indazol-5-amine]	223 nM
FC(F)(F)c1cccc(CN2CCC(Nc3ccc4[nH]ncc4c3)C2)c1 (centres unmarked) [Compound 1.064, N-(1-(3-(trifluoromethyl)benzyl)pyrrolidin-3-yl)-1H-indazol-5-amine]	165 nM
Clc1ccc(Oc2cccc(CN3CCCC(Nc4ccc5[nH]ncc5c4)C3)c2)cc1 (centres unmarked) [Compound 1.069, N-(1-(3-(4-chlorophenoxy)benzyl)piperidin-3-yl)-1H-indazol-5-amine]	6050 nM
FC(F)(F)c1cccc(Oc2cccc(CN3CCCC(Nc4ccc5[nH]ncc5c4)C3)c2)c1 (centres unmarked) [Compound 1.070, N-(1-(3-(3-(trifluoromethyl)phenoxy)benzyl)piperidin-3-yl)-1H-indazol-5-amine]	6680 nM
Brc1ccc(Br)c(CN2CCCC(Nc3ccc4[nH]ncc4c3)C2)c1 (centres unmarked) [Compound 1.071, N-(1-(2,5-dibromobenzyl)piperidin-3-yl)-1H-indazol-5-amine]	5590 nM
OCCCOc1cccc(CN2CCCC(Nc3ccc4[nH]ncc4c3)C2)c1 (centres unmarked) [Compound 1.084, 3-(3-((3-(1H-indazol-5-ylamino)piperidin-1-yl)methyl)phenoxy)propan-1-ol]	274 nM
NCCOc1cccc(CN2CCCC(Nc3ccc4[nH]ncc4c3)C2)c1 (centres unmarked) [Compound 1.085, N-(1-(3-(2-aminoethoxy)benzyl)piperidin-3-yl)-1H-indazol-5-amine]	1680 nM
O=C(O)COc1cccc(CN2CCCC(Nc3ccc4[nH]ncc4c3)C2)c1 (centres unmarked) [Compound 1.086, 2-(3-((3-(1H-indazol-5-ylamino)piperidin-1-yl)methyl)phenoxy)acetic acid]	310 nM
CS(=O)(=O)Nc1cccc(CN2CCC(Nc3ccc4[nH]ncc4c3)C2)c1 (centres unmarked) [Compound 1.087, N-(3-((3-(1H-indazol-5-ylamino)pyrrolidin-1-yl)methyl)phenyl)methanesulfonamide]	280 nM
OCCOc1cccc(CN2CCC(Nc3ccc4[nH]ncc4c3)C2)c1 (centres unmarked) [Compound 1.088, 2-(3-((3-(1H-indazol-5-ylamino)pyrrolidin-1-yl)methyl)phenoxy)ethanol]	651 nM
OCCOc1cccc(CN2CCC[C@H](Nc3ccc4[nH]ncc4c3)C2)c1 [Compound 1.090, (S)-2-(3-((3-(1H-indazol-5-ylamino)piperidin-1-yl)methyl)phenoxy)ethanol]	354 nM
CS(=O)(=O)Nc1cccc(CN2CCC[C@H](Nc3ccc4[nH]ncc4c3)C2)c1 [Compound 1.091, (S)-N-(3-((3-(1H-indazol-5-ylamino)piperidin-1-yl)methyl)phenyl)methanesulfonamide]	49.4 nM
OCCOc1cccc(CN2CCC[C@@H](Nc3ccc4[nH]ncc4c3)C2)c1 [Compound 1.092, (R)-2-(3-((3-(1H-indazol-5-ylamino)piperidin-1-yl)methyl)phenoxy)ethanol]	406 nM
CS(=O)(=O)Nc1cccc(CN2CCC[C@@H](Nc3ccc4[nH]ncc4c3)C2)c1 [Compound 1.093, (R)-N-(3-((3-(1H-indazol-5-ylamino)piperidin-1-yl)methyl)phenyl)methanesulfonamide]	101 nM
OCCOc1cccc(CN2CC[C@H](Nc3ccc4[nH]ncc4c3)C2)c1 [Compound 1.094, (S)-2-(3-((3-(1H-indazol-5-ylamino)pyrrolidin-1-yl)methyl)phenoxy)ethanol]	466 nM
CS(=O)(=O)Nc1cccc(CN2CC[C@H](Nc3ccc4[nH]ncc4c3)C2)c1 [Compound 1.095, (S)-N-(3-((3-(1H-indazol-5-ylamino)pyrrolidin-1-yl)methyl)phenyl)methanesulfonamide]	647 nM
OCCOc1cccc(CN2CC[C@@H](Nc3ccc4[nH]ncc4c3)C2)c1 [Compound 1.096, (R)-2-(3-((3-(1H-indazol-5-ylamino)pyrrolidin-1-yl)methyl)phenoxy)ethanol]	1300 nM

Continued, values first:

IC50	SMILES
132 nM	c1cc2cc(CN3CCCC(Nc4ccc5[nH]ncc5c4)C3)ccc2s1 (centres unmarked) [Compound 1.054, N-(1-(benzo[b]thiophen-5-ylmethyl)piperidin-3-yl)-1H-indazol-5-amine]
472 nM	NC(=O)c1cccc(CN2CCCC(Nc3ccc4[nH]ncc4c3)C2)c1 (centres unmarked) [Compound 1.055, 3-((3-(1H-indazol-5-ylamino)piperidin-1-yl)methyl)benzamide]
435 nM	NS(=O)(=O)c1cccc(CN2CCCC(Nc3ccc4[nH]ncc4c3)C2)c1 (centres unmarked) [Compound 1.056, 3-((3-(1H-indazol-5-ylamino)piperidin-1-yl)methyl)benzenesulfonamide]
47.5 nM	Cc1ccc(CN2CCCC(Nc3ccc4[nH]ncc4c3)C2)cc1OCCO (centres unmarked) [Compound 1.058, 2-(5-((3-(1H-indazol-5-ylamino)piperidin-1-yl)methyl)-2-methylphenoxy)ethanol]
32 nM	Cc1ccc(CN2CCCC(Nc3ccc4[nH]ncc4c3)C2)cc1O (centres unmarked) [Compound 1.059, 5-((3-(1H-indazol-5-ylamino)piperidin-1-yl)methyl)-2-methylphenol]
282 nM	NCc1cccc(CN2CCCC(Nc3ccc4[nH]ncc4c3)C2)c1 (centres unmarked) [Compound 1.061, N-(1-(3-(aminomethyl)benzyl)piperidin-3-yl)-1H-indazol-5-amine]
326 nM	CCOc1cccc(CN2CCCC(Nc3ccc4[nH]ncc4c3)C2)c1 (centres unmarked) [Compound 1.065, N-(1-(3-ethoxybenzyl)piperidin-3-yl)-1H-indazol-5-amine]
232 nM	Cc1cccc(CN2CCCC(Nc3ccc4[nH]ncc4c3)C2)c1 (centres unmarked) [Compound 1.066, N-(1-(3-methylbenzyl)piperidin-3-yl)-1H-indazol-5-amine]
1850 nM	COc1ccccc1CN1CCCC(Nc2ccc3[nH]ncc3c2)C1 (centres unmarked) [Compound 1.067, N-(1-(2-methoxybenzyl)piperidin-3-yl)-1H-indazol-5-amine]
660 nM	Oc1cc(CN2CCCC(Nc3ccc4[nH]ncc4c3)C2)ccc1I (centres unmarked) [Compound 1.068, 5-((3-(1H-indazol-5-ylamino)piperidin-1-yl)methyl)-2-iodophenol]
58.5 nM	Fc1ccc(CN2CCC[C@H](Nc3ccc4[nH]ncc4c3)C2)cc1F [Compound 1.072, (S)-N-(1-(3,4-difluorobenzyl)piperidin-3-yl)-1H-indazol-5-amine]
111 nM	Fc1ccc(CN2CCC[C@@H](Nc3ccc4[nH]ncc4c3)C2)cc1F [Compound 1.073, (R)-N-(1-(3,4-difluorobenzyl)piperidin-3-yl)-1H-indazol-5-amine]
71.6 nM	CSc1ccc(CN2CCC[C@@H](Nc3ccc4[nH]ncc4c3)C2)cc1 [Compound 1.074, (R)-N-(1-(4-(methylthio)benzyl)piperidin-3-yl)-1H-indazol-5-amine]
74.5 nM	CSc1ccc(CN2CCC[C@H](Nc3ccc4[nH]ncc4c3)C2)cc1 [Compound 1.075, (S)-N-(1-(4-(methylthio)benzyl)piperidin-3-yl)-1H-indazol-5-amine]
111 nM	C#Cc1ccc(CN2CCC[C@@H](Nc3ccc4[nH]ncc4c3)C2)cc1 [Compound 1.076, (R)-N-(1-(4-ethynylbenzyl)piperidin-3-yl)-1H-indazol-5-amine]
53.1 nM	C#Cc1ccc(CN2CCC[C@H](Nc3ccc4[nH]ncc4c3)C2)cc1 [Compound 1.077, (S)-N-(1-(4-ethynylbenzyl)piperidin-3-yl)-1H-indazol-5-amine]
63.1 nM	Cc1ccc(CN2CCC[C@H](Nc3ccc4[nH]ncc4c3)C2)cc1 [Compound 1.078, (S)-N-(1-(4-methylbenzyl)piperidin-3-yl)-1H-indazol-5-amine]
102 nM	COc1ccc(CN2CCC[C@H](Nc3ccc4[nH]ncc4c3)C2)cc1 [Compound 1.079, (S)-N-(1-(4-methoxybenzyl)piperidin-3-yl)-1H-indazol-5-amine]
162 nM	Clc1ccc(CN2CCC[C@H](Nc3ccc4[nH]ncc4c3)C2)cc1Cl [Compound 1.080, (S)-N-(1-(3,4-dichlorobenzyl)piperidin-3-yl)-1H-indazol-5-amine]
30.1 nM	Clc1ccc(CN2CCC[C@H](Nc3ccc4[nH]ncc4c3)C2)cc1 [Compound 1.081, (S)-N-(1-(4-chlorobenzyl)piperidin-3-yl)-1H-indazol-5-amine]
30.4 nM	c1cc2ccc(CN3CCCC(Nc4ccc5[nH]ncc5c4)C3)cc2[nH]1 (centres unmarked) [Compound 1.082, N-(1-((1H-indol-6-yl)methyl)piperidin-3-yl)-1H-indazol-5-amine]
7310 nM	C#Cc1ccc(CN2CCCC(Nc3ccc4[nH]ncc4c3)C2)cc1O (centres unmarked) [Compound 1.083, 5-((3-(1H-indazol-5-ylamino)piperidin-1-yl)methyl)-2-ethynylphenol]
29.4 nM	Nc1cc(CN2CCCC(Nc3ccc4[nH]ncc4c3)C2)ccc1Cl (centres unmarked) [Compound 1.089, N-(1-(3-amino-4-chlorobenzyl)piperidin-3-yl)-1H-indazol-5-amine]
